The values below come from patent US20110312894A1 (priority 2009, published 2011).

Test [1] concerns the target T1, α7-containing-nAChRs on MS/DB neurons from nAChR β2 knockout mice (Mus musculus, UniProt P49582).
T1 construct: endogenous in cells; host or cells: acutely dissociated MS/DB neurons of nAChR β2 subunit knockout mice (C57/Bl6 background)
It counts as cell-based.
Procedure: (§3) Briefly, each postnatal 2-4 week-old Wistar rat or mouse (wild-type C57/B16 or nAChR β2 knockout mice on a C57/B16 background kindly provided by Dr. Marina Picciotto, Yale University) was anesthetized using isoflurane, and the brain was rapidly removed. Several 400-μm coronal slices, which contained the medial septum/diagonal band (MS/DB) or the ventral tegmental area (VTA), were cut using a vibratome (Vibratorne 1000 plus; Jed Pella Inc., Redding, Calif.) in cold (2-4° C.) artificial cerebrospinal fluid (ACSF) and continuously bubbled with carbogen (95% O2-5% CO2). The slices were then incubated in a pre-incubation chamber (Warner Ins., Holliston, Mass.) and allowed to recover for at least 1 h at room temperature (22±PC) in oxygenated ACSF. Thereafter, the slices were treated with pronase (1 mg/6 mL) at 31° C. for 30 min and subsequently treated with the same concentration of thermolysin for another 30 min. The MS/DB or VTA region was micropunched out from the slices using a well-polished needle. […] In particular, perforated-patch recording was used to maintain the intracellular ATP concentration at a physiological level. […] Under current-clamp configuration, membrane potentials were measured using a patch-clamp amplifier (200B; Axon Instruments, Foster City, Calif.). […]

For test [2], the target named is T2, heterologously expressed heteromeric α7β2-nAChRs (Rattus norvegicus, UniProt P12390+Q05941).
T2 construct: expressed in transfected cells; host or cells: Xenopus laevis oocytes injected with cRNA (vector pGEMHE)
T2 sequence (Q05941 23-502): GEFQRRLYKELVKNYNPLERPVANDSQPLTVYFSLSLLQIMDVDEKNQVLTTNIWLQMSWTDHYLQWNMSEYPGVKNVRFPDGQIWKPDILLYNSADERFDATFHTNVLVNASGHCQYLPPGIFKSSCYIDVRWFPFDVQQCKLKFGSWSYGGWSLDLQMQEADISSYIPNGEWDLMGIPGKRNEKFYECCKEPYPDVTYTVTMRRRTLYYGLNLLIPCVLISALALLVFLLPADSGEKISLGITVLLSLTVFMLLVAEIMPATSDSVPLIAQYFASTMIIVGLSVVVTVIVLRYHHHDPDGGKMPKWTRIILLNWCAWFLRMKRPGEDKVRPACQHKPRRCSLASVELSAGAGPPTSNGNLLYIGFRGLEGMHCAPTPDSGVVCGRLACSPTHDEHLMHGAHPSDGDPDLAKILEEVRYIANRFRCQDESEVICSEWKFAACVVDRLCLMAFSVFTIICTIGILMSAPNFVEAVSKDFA
T2 sequence (P12390 25-500): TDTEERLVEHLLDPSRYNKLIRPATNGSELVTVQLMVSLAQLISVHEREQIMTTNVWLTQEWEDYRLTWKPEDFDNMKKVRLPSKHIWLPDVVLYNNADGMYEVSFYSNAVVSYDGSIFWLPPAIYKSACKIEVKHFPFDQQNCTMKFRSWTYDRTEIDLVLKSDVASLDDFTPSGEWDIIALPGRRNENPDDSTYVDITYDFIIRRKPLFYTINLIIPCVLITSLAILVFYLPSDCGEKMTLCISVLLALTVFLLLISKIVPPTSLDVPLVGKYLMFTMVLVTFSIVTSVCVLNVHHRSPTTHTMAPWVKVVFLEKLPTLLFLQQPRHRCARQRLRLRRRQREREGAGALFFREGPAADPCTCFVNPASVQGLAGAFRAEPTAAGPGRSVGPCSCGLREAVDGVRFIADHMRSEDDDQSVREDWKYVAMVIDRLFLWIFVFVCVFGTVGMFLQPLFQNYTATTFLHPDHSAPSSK
It counts as cell-based. Conditions: oocytes; 10 mM choline; compared with homomeric α7-nAChR. The protocol: The frogs were then allowed to recover from surgery before being returned to the incubation tank. The lobes were cut into small pieces and digested with 0.08 Wunsch U/mL liberase blendzyme 3 (Roche Applied Science, Indianapolis, Ind.) with constant stirring at room temperature for 1.5-2 h. The dispersed oocytes were thoroughly rinsed with incubation solution. Stage VI oocytes were selected and incubated at 16° C. before injection. Micropipettes used for injection were pulled from borosilicate glass (Drummond Scientific, Broomall, Pa.). cRNAs encoding α7 or β2 at proper dilution were injected into oocytes separately or in different ratios using a Nanoject microinjection system (Drummond Scientific, Broomall, Pa.) at a total volume of ˜20-60 nL.
The chamber was grounded through an agarose bridge. The oocytes were voltage-clamped at −70 mV to measure ACh (or choline)-induced currents using GeneClamp 500B (Axon Instruments, Foster City, Calif.).

The target in test [3] is T3, heteromeric α7β2-nAChRs on MS/DB cholinergic neurons (Rattus norvegicus, UniProt P12390+Q05941).
T3 construct: functional nAChRs naturally expressed on rat MS/DB cholinergic neurons; endogenous in cells; host or cells: acutely dissociated MS/DB neurons of 2-4 week-old Wistar rats
T3 sequence (Q05941 23-502): as the sequence (Q05941 23-502) above
T3 sequence (P12390 25-500): as the sequence (P12390 25-500) above
It counts as cell-based. As to conditions: for form-dependent suppression of choline-induced responses: 1 nM of the peptide form. The protocol:
(§1) Briefly, each postnatal 2-4 week-old Wistar rat or mouse (wild-type C57/B16 or nAChR β2 knockout mice on a C57/B16 background kindly provided by Dr. Marina Picciotto, Yale University) was anesthetized using isoflurane, and the brain was rapidly removed. Several 400-μm coronal slices, which contained the medial septum/diagonal band (MS/DB) or the ventral tegmental area (VTA), were cut using a vibratome (Vibratorne 1000 plus; Jed Pella Inc., Redding, Calif.) in cold (2-4° C.) artificial cerebrospinal fluid (ACSF) and continuously bubbled with carbogen (95% O2-5% CO2). The slices were then incubated in a pre-incubation chamber (Warner Ins., Holliston, Mass.) and allowed to recover for at least 1 h at room temperature ([…]) in oxygenated ACSF. Thereafter, the slices were treated with pronase (1 mg/6 mL) at 31° C. for 30 min and subsequently treated with the same concentration of thermolysin for another 30 min. The MS/DB or VTA region was micropunched out from the slices using a well-polished needle. […] In particular, perforated-patch recording was used to maintain the intracellular ATP concentration at a physiological level. To prepare for perforated-patch whole-cell recording, glass microelectrodes (GC-1.5; Narishige, East Meadow, N.Y.) were fashioned on a two-stage vertical pipette puller (P-830; Narishige, East Meadow, N.Y.), and the resistance of the electrode was 3 to 5 MΩ when filled with the internal solution. A tight seal (>2 GΩ) was formed between the electrode tip and the cell surface, which was followed by a transition from on-cell to whole-cell recording mode due to the partitioning of amphotericin B into the membrane underlying the patch. After whole-cell formation, an access resistance lower than 60 MΩ was acceptable during perforated-patch recordings in current-clamp mode, and an access resistance lower than 30 MΩ was acceptable during voltage-clamp recordings. The series resistance was not compensated in the experiments using dissociated neurons. Under current-clamp configuration, membrane potentials were measured using a patch-clamp amplifier (200B; Axon Instruments, Foster City, Calif.). […] All experiments were performed at room temperature (22±1° C.).

Test [4] has as its target T4, homomeric α7-nAChRs on VTA DAergic neurons (Rattus norvegicus, UniProt Q05941).
T4 construct: native nAChR responses in rat MS/DB or VTA neurons; endogenous in cells; host or cells: acutely dissociated VTA dopaminergic neurons of Wistar rats
It counts as cell-based. The protocol: as §1

Test [5] relates to MS/DB neurons. Briefly: Current-clamp recording of spontaneous action potential firing in dissociated MS/DB neurons. As to conditions: 1 μM. The class given is cell-based, rat.
Procedure: as §3
Test [6] has as its system GABAA receptors. Briefly: GABA-induced whole-cell currents in rat MS/DB cholinergic neurons. The class given is cell-based. Conditions: 1 nM peptide; 0.1 mM GABA. The protocol:
(§2) Briefly, each postnatal 2-4 week-old Wistar rat or mouse (wild-type C57/B16 or nAChR β2 knockout mice on a C57/B16 background kindly provided by Dr. Marina Picciotto, Yale University) was anesthetized using isoflurane, and the brain was rapidly removed. Several 400-μm coronal slices, which contained the medial septum/diagonal band (MS/DB) or the ventral tegmental area (VTA), were cut using a vibratome (Vibratorne 1000 plus; Jed Pella Inc., Redding, Calif.) in cold (2-4° C.) artificial cerebrospinal fluid (ACSF) and continuously bubbled with carbogen (95% O2-5% CO2). The slices were then incubated in a pre-incubation chamber (Warner Ins., Holliston, Mass.) and allowed to recover for at least 1 h at room temperature ([…]) in oxygenated ACSF. Thereafter, the slices were treated with pronase (1 mg/6 mL) at 31° C. for 30 min and subsequently treated with the same concentration of thermolysin for another 30 min. The MS/DB or VTA region was micropunched out from the slices using a well-polished needle. […] In particular, perforated-patch recording was used to maintain the intracellular ATP concentration at a physiological level. […] Under current-clamp configuration, membrane potentials were measured using a patch-clamp amplifier (200B; Axon Instruments, Foster City, Calif.). […]

Test [7] concerns the target T5, α7β2-nAChRs on MS/DB neurons from wild-type mice (Mus musculus, UniProt P49582+Q9ERK7).
T5 construct: heteromeric α7β2-nAChRs exist in rodent basal forebrain cholinergic neurons; endogenous in cells; host or cells: acutely dissociated MS/DB neurons of wild-type C57/Bl6 mice
Briefly: Whole-cell current recordings, MS/DB neurons from wild-type mice. It counts as cell-based. As to conditions: 1 nM peptide.
Procedure: as §3

Test [8] relates to ionotropic glutamate receptors. Briefly: Glutamate-induced whole-cell currents in rat MS/DB cholinergic neurons. It counts as cell-based. Conditions: 1 nM peptide; 1 mM glutamate. The procedure:
as §2

Read-outs that look alike come from different tables or passages of the source.

T4 sequence (Q05941 23-502): as the sequence (Q05941 23-502) above
T1 sequence (P49582 23-502): as the sequence (Q05941 23-502) above, with A402T counted along it
T5 sequence (P49582 23-502): as the sequence (Q05941 23-502) above, with A402T counted along it
T5 sequence (Q9ERK7 26-501): as the sequence (P12390 25-500) above, with A350T, V371M, R379Q, T383A, P387L, V391M, V449I, P468S counted along it

For the compound `CO[C@H]1CC=C2CCN3CCC4=C(CC(=O)OC4)[C@]23C1` [DHβE, dihydro-β-erythroidine], the “sensitivity of choline-induced currents to antagonist” value in test [1] (MS/DB neurons from β2 knockouts compared with wild-type) is “lower sensitivity”. Also, the “sensitivity to functional blockade, α7β2- vs α7-nAChR” value in test [2] is given as “more sensitive”. Also, the “Hill coefficient, inhibition of choline-induced currents” value in test [3] (10 mM choline, MS/DB neurons, n=8) is given as 0.9; in test [4] (10 mM choline, VTA neurons) it was 0.3. Also, the IC50 is 170 nM in test [3] (10 mM choline, MS/DB neurons, n=8, read-out: IC50, inhibition of choline-induced currents) and over 100000 nM in test [4] (10 mM choline, VTA neurons, n=7, read-out: IC50, inhibition of choline-induced currents). Moreover, the “potency difference as inhibitor of choline-induced current, MS/DB vs VTA neurons” value in test [3] (MS/DB neurons compared with VTA neurons) is given as about 500 fold.
Take `CNCC/C=C/c1cccnc1` [RJR-2403]: the “agonist-evoked inward current compared with ACh-induced response” value in test [3] is “insensitive”. For the same compound, the “agonist-evoked current compared with ACh-induced response” value in test [4] is “mimicked”.
In the case of `C[C@@H]1O[C@H](C[N+](C)(C)C)C[C@H]1O` [muscarine], the “effect on spontaneous action potential firing” value in test [5] was “insensitive”.
Regarding “Aβ1-42: amyloid beta peptides at positions 1-42 of the amyloid precursor protein, purchased from rPeptide”, the “effect on choline-induced currents” value is given as “failed to suppress” in test [1] (1 nM peptide, MS/DB neurons from β2−/− mice); “did suppress” in test [7]; “progressively inhibited with time” in test [3]; “negligible” in test [3] (0.1 nM peptide, MS/DB neurons); “not sensitive” in test [4] (1 nM peptide, VTA DAergic neurons). Further, in test [6], the “inhibition of GABA-induced currents” value is on record as “insensitive”. Further, in test [8], the “inhibition of glutamate-induced currents” value is reported as “insensitive”. In addition, the “effect on ACh-induced current” value in test [3] (1 nM peptide, 1 mM ACh, MS/DB neurons) was “evident”. In test [3] (1 nM, recovery after 6 min of peptide washout), the “reversibility of inhibition of choline responses” value is “reversibly”.
For the compound “fibrillar Aβ: Aβ1-42 stock incubated at 37° C. for 48 h at pH 6.0, predominantly fibrillar form”, the “form-dependent suppression of choline-induced responses” value in test [3] (MS/DB neurons) is “weaker inhibitory effect”.
The same measure, in the same setting: with “monomeric Aβ1-42: Aβ1-42 reconstituted in DMSO, predominant monomeric form” the entry was “failed to suppress”.
Still for that read-out and setting: to “oligomeric Aβ1-42: Aβ1-42 reconstituted in distilled water, predominantly oligomeric form” belongs “greatest suppression”.

What is called IC50 is the concentration at which inhibition is half-maximal.
